According to the supplement of paper PMC10307832:

Assays:
Experiment in all cases: relative viability (nuclei count vs DMSO), 5 days (fraction); higher = more cells survive
201T = tested on: 201T
Outline: (§1)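 For relative viability, nuclei counts in treated wells were divided by those in vehicle wells. Lung cancer cell lines had been pin-tool dosed in 1536-well plates the day after seeding and cultured for 5 days, then fixed and stained in one step (final 0.05% Triton X-100, 1% formaldehyde, 1 ug/ml Hoechst) and imaged at 4×. Doses were one drug alone or a fixed anchor-drug dose plus five library-drug doses (not always all listed) in √10 steps, and values are duplicate-plate medians.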

ABC-1 = tested on: ABC-1
Outline: as §1

EKVX = tested on: EKVX
Outline: as §1

EPLC-272H = tested on: EPLC-272H
Outline: as §1

HCC-44 = tested on: HCC-44
Outline: as §1

LOU-NH91 = tested on: LOU-NH91
Outline: as §1

NCI-H1734 = tested on: NCI-H1734
Outline: as §1

NCI-H1793 = tested on: NCI-H1793
Outline: as §1

NCI-H1993 = tested on: NCI-H1993
Outline: as §1

NCI-H2085 = tested on: NCI-H2085
Outline: as §1

NCI-H2170 = tested on: NCI-H2170
Outline: as §1

NCI-H2347 = tested on: NCI-H2347
Outline: as §1

NCI-H2405 = tested on: NCI-H2405
Outline: as §1

NCI-H3122 = tested on: NCI-H3122
Outline: as §1

NCI-H441 = tested on: NCI-H441
Outline: as §1

NCI-H647 = tested on: NCI-H647
Outline: as §1

PC-14 = tested on: PC-14
Outline: as §1

RERF-LC-KJ = tested on: RERF-LC-KJ
Outline: as §1

SW 900 = tested on: SW 900
Outline: as §1

## CC(C)Oc1cc(Nc2nc(N[C@@H](C)c3ccc(F)cn3)ncc2Cl)n[nH]1 [AZ23] + NC(=O)Nc1cc(-c2cccc(F)c2)sc1C(=O)N[C@H]1CCCNC1 [AZD7762] (partner 0.2 µM)
201T; first compound 0.01 µM
  relative viability: 0.321
201T; first compound 0.03162 µM
  relative viability: 0.576
201T; first compound 0.3162 µM
  relative viability: 0.743
ABC-1; first compound 0.03162 µM
  relative viability: 1.23
ABC-1; first compound 0.3162 µM
  relative viability: 0.835
EKVX; first compound 0.01 µM
  relative viability: 0.625
EKVX; first compound 0.03162 µM
  relative viability: 0.837
EKVX; first compound 0.3162 µM
  relative viability: 0.676
EPLC-272H; first compound 0.03162 µM
  relative viability: 0.254
EPLC-272H; first compound 0.3162 µM
  relative viability: 0.251
HCC-44; first compound 0.01 µM
  relative viability: 1.06
HCC-44; first compound 0.03162 µM
  relative viability: 1.01
HCC-44; first compound 0.3162 µM
  relative viability: 1.04
LOU-NH91; first compound 0.01 µM
  relative viability: 0.777
LOU-NH91; first compound 0.03162 µM
  relative viability: 0.853
LOU-NH91; first compound 0.3162 µM
  relative viability: 0.803
NCI-H1734; first compound 0.01 µM
  relative viability: 0.602
NCI-H1734; first compound 0.03162 µM
  relative viability: 0.688
NCI-H1734; first compound 0.3162 µM
  relative viability: 0.795
NCI-H1793; first compound 0.01 µM
  relative viability: 0.361
NCI-H1793; first compound 0.03162 µM
  relative viability: 0.498
NCI-H1793; first compound 0.3162 µM
  relative viability: 1.3
NCI-H1993; first compound 0.01 µM
  relative viability: 0.703
NCI-H1993; first compound 0.03162 µM
  relative viability: 0.749
NCI-H1993; first compound 0.3162 µM
  relative viability: 0.965
NCI-H2085; first compound 0.01 µM
  relative viability: 0.923
NCI-H2085; first compound 0.03162 µM
  relative viability: 0.975
NCI-H2085; first compound 0.3162 µM
  relative viability: 1.08
NCI-H2170; first compound 0.01 µM
  relative viability: 0.885
NCI-H2170; first compound 0.03162 µM
  relative viability: 0.887
NCI-H2170; first compound 0.3162 µM
  relative viability: 1.06
NCI-H2347; first compound 0.01 µM
  relative viability: 0.718
NCI-H2347; first compound 0.03162 µM
  relative viability: 0.818
NCI-H2347; first compound 0.3162 µM
  relative viability: 0.782
NCI-H2405; first compound 0.01 µM
  relative viability: 0.538
NCI-H2405; first compound 0.03162 µM
  relative viability: 0.864
NCI-H2405; first compound 0.3162 µM
  relative viability: 0.843
NCI-H3122; first compound 0.01 µM
  relative viability: 1.22
NCI-H3122; first compound 0.03162 µM
  relative viability: 1.03
NCI-H3122; first compound 0.3162 µM
  relative viability: 1.02
NCI-H441; first compound 0.01 µM
  relative viability: 1.17
NCI-H441; first compound 0.03162 µM
  relative viability: 1.03
NCI-H441; first compound 0.3162 µM
  relative viability: 1.33
NCI-H647; first compound 0.01 µM
  relative viability: 0.296
NCI-H647; first compound 0.03162 µM
  relative viability: 0.615
NCI-H647; first compound 0.3162 µM
  relative viability: 0.806
PC-14; first compound 0.01 µM
  relative viability: 0.326
PC-14; first compound 0.03162 µM
  relative viability: 0.339
PC-14; first compound 0.3162 µM
  relative viability: 0.375
RERF-LC-KJ; first compound 0.01 µM
  relative viability: 1.09
RERF-LC-KJ; first compound 0.03162 µM
  relative viability: 1.02
RERF-LC-KJ; first compound 0.3162 µM
  relative viability: 1.11
SW 900; first compound 0.01 µM
  relative viability: 0.556
SW 900; first compound 0.3162 µM
  relative viability: 0.74
